For series [1], the system named is human papillomavirus (HPV) lesions. The settings on record: cited from earlier work; for rate of local relapses: direct application on moles.
The next series concerns skin incisions. Put plainly: healing tests (skin incisions). The series is classed as in vivo, albino rabbits of the New Zealand lineage. The settings on record: daily topical treatment of incisions. The source says:
Thirty-six healthy adult albino rabbits of the New Zealand lineage weighing between 1.250 and 1.700 Kg were used for the healing tests. The animals were shaved and housed in individual cages at room temperature, in 12-hour light-dark cycles, with PURINA animal food and water ad libitum. The rabbits were anesthetized with local administration of lidocaine hydrochloride and inhalation of sulfuric ether. Four incisions were made on the skin of each rabbit until the subcutaneous layer was reached. A distance of 3 cm was maintained between each incision. The animals were divided into three groups. The group A, control, received NaCl 0.9% solution during the 14 days of treatment period. Group B was treated with rifamycin and group C received the ethanolic extract of barbatiman barks, resuspended in water (0.1 g mL^−1). The incisions remained open, and the rabbits were treated from the first day of the incision until the 14th day after the incision was made. On the 7th day, pieces were removed from ⅓ of the rabbits and part of the liver for histological analysis, and the animals were then killed. On 14th day, the remaining rabbits were killed, and the pieces and part of the liver were removed for histological analysis. […]

As to `CC(C)Cn1cnc2c(N)nc3ccccc3c21` [Imiquimod], in series [1] (condyloma acuminata of external and perianal genitalia), the cure rate was 50-56%. The “patients with headache, myalgia, and flu-like symptoms” value in series [1] (in vivo) is “less than 5%”.

As for `O=C(O)C(Cl)Cl` [dichloroacetic acid, dichloroacetic], in series [1], the “rate of local relapses” value is on record as “around 30%”.

Regarding `CO[C@H]1/C=C/O[C@@]2(C)Oc3c(C)c(O)c4c(O)c(cc(O)c4c3C2=O)NC(=O)/C(C)=C\C=C\[C@H](C)[C@H](O)[C@@H](C)[C@@H](O)[C@@H](C)[C@H](OC(C)=O)[C@@H]1C` [rifamycin], the purulent secretion entry in the series with skin incisions is “present purulent secretion”.

With `O=C(O)C(Cl)(Cl)Cl` [trichloroacetic acid, trichloroacetic acids], in series [1], the “rate of local relapses” value was “around 30%”.

The record behind these values is patent US9023405B2, “Pharmaceutical composition using stryphnodendron extracts for treating HPV infections” (priority 2010, dated 2015).
